Measured values published in patent US7608282B2, “Transdermal granisetron” (Strakan International Limited, priority 2003, dated 2009).
Where a name gives a salt, the structure may show the parent alone.

Tests used:
[1] = single administration of a 1 mg tablet, human volunteers; cited from earlier work
[2] = tested on: delayed emesis in cancer patients; conditions: continual IV infusion at 40 μg/h; cited from earlier work
[3] = tested on: post-operative nausea and vomiting; conditions: doses as low as 0.1 mg; cited from earlier work
[4] = cited from earlier work
[5] = tested on: delayed emesis in cancer patients; assay: continual IV infusion of granisetron in cancer patients, delayed emesis (Kalaycio et al.); type: in vivo, human; conditions: continual IV infusion at 40 μg/h
From the text: The minimum therapeutic plasma level required for efficacious use of any drug is ideally assessed by titrated, prolonged IV infusion studies coupled to clinical response in patients.

[6] = acrylic adhesives, WO98/53815; cited from earlier work
[7] = continual twice daily dosing of 1 mg in cancer patients

| Structure (SMILES) | Cmax [1] | effect on delayed emesis [2] | prevention of post-operative nausea and vomiting [3] | average peak plasma levels [4, 7] | clearance [4, 7] | Tmax ([4]; oral granisetron, population not given) | plasma level maintained [5] | stability in adhesives containing nucleophilic (hydroxyl) moieties [6] |
| --- | --- | --- | --- | --- | --- | --- | --- | --- |
| CN1C2CCCC1CC(NC(=O)c1nn(C)c3ccccc13)C2 (stereo not drawn) [granisetron, N-endo-9-methyl-9-azabicyclo[3.3.1]non-3-yl-1-methylindazole-3-carboxamide hydrochloride] | 3.6 ng/mL | alleviate delayed emesis | effective | 6 ng/mL | 8.67 mL/min/kg | approximately 2 hours | approximately 1.5 ng/ml |  |
| CN1[C@@H]2CC[C@H]1C[C@@H](OC(=O)c1c[nH]c3ccccc13)C2 [tropisetron] |  |  |  |  |  |  |  | unstable |
